≈ marks a conversion by molar mass, not a printed value.
Experiments:
Plasmodium falciparum [1] = assay: Antiplasmodial activity after 24 hrs against chloroquine-resistant Plasmodium falciparum W2 infected human erythrocytes by [3H]hypoxanthine uptake; format: functional, organism-based
Plasmodium falciparum [2] = assay: Antiplasmodial activity after 24 hrs against chloroquine-sensitive Plasmodium falciparum D6 infected human erythrocytes by [3H]hypoxanthine uptake; format: functional, organism-based
Plasmodium falciparum [3] = assay: Antiplasmodial activity after 24 hrs against chloroquine,pyrimethamine-resistant Plasmodium falciparum K1 infected human erythrocytes by [3H]hypoxanthine uptake; format: functional, organism-based
Plasmodium falciparum [4] = assay: Antiplasmodial activity after 24 hrs against drug-sensitive Plasmodium falciparum NF54 infected human erythrocytes by [3H]hypoxanthine uptake; format: functional, organism-based
[5] = Cytotoxicity against human erythrocytes; format: cell-based; settings: Erythrocyte

With `C/C(=C\CO)[C@H]1C[C@H]2C(C)(C)C(=O)C=C[C@]2(C)OO1` (relative stereo) [OKUNDOPEROXIDE] the IC50 (Plasmodium falciparum [1]) was 0.47 µg/mL (≈ 1.76 µM), the IC50 (Plasmodium falciparum [2]) was 0.483 µg/mL (≈ 1.81 µM) and the IC50 (Plasmodium falciparum [3]) was 1.5 µg/mL (≈ 5.62 µM). For the same compound, the IC50 (Plasmodium falciparum [4]) was 1.31 µg/mL (≈ 4.91 µM) and the IC50 [5] was 22.7 µg/mL (≈ 85.2 µM).

`COc1cc([C@@H]2c3cc4c(cc3[C@H](O)[C@H]3COC(=O)[C@H]23)OCO4)cc(OC)c1OC` [PODOFILOX] gave an IC50 [5] of 0.007 µg/mL (≈ 0.0169 µM).

Reference: ChEMBL document CHEMBL1151966, “Okundoperoxide, a bicyclic cyclofarnesylsesquiterpene endoperoxide from Scleria striatinux with antiplasmodial activity” (J Nat Prod, 2009)
